In ChEMBL document CHEMBL1201862, “PubChem BioAssay data set” (2004) one finds IC50, EC50 and AC50 data, which are given here for six molecules.

Molecules are shown by their SMILES. Active and inactive are the calls of the source.

Assay [1] addresses Tyrosine-protein phosphatase non-receptor type 11 (Homo sapiens, UniProt Q06124). Nature of the assay: SHP2 phosphatase inhibition, dose response, selectivity assay for STEP inhibitor project, biochemical (AID 602367). In kind it is functional. The following applies: read-out: IC50_Mean.
Assay [2] deals with T1, Tyrosine-protein phosphatase non-receptor type 22 (Homo sapiens, UniProt Q9Y2R2).
T1 sequence (Q9Y2R2 whole entry): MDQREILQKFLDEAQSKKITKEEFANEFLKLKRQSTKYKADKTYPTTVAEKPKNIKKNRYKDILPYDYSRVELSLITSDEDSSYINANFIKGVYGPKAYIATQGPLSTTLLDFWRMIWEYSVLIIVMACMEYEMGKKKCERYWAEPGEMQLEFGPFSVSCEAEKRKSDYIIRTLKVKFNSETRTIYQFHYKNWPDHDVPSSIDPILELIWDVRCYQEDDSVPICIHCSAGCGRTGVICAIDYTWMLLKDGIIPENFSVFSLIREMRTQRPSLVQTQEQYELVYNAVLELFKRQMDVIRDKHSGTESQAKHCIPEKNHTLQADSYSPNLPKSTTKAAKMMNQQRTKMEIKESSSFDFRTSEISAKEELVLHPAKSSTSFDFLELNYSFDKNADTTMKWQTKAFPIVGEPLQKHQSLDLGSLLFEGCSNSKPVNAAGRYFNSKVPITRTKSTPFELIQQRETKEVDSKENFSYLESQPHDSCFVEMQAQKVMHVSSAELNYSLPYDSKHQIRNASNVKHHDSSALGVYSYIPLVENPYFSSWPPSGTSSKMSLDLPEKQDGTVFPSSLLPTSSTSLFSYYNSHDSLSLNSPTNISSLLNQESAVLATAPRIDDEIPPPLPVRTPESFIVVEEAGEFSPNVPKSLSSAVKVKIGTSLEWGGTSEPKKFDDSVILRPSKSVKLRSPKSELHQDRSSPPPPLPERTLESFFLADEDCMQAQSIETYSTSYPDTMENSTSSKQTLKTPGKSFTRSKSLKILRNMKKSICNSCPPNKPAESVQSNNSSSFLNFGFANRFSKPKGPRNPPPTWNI
Briefly: PTPN22 phosphatase inhibition, dose response, selectivity assay for STEP inhibitor project, biochemical (AID 624241). In kind it is functional.

In assay [3] the target is Tyrosine-protein phosphatase non-receptor type 5 (Homo sapiens, UniProt P54829). Briefly: STEP phosphatase inhibitors, confirmation, biochemical, fluorescence intensity, uHTS hits (AID 602372). In kind it is functional. The following applies: read-out: IC50_Mean.
Assay [4] addresses Dual specificity protein phosphatase 3 (Homo sapiens, UniProt P51452). Nature of the assay: VHR phosphatase inhibition, dose response, selectivity assay for STEP inhibitor project, biochemical (AID 602374). In kind it is functional. The following applies: read-out: IC50_Mean.
The target of assay [5] is T2, Corticotropin-releasing factor receptor 2/Corticotropin-releasing factor-binding protein (Homo sapiens, UniProt P24387+Q13324).
T2 sequence (Q13324 whole entry): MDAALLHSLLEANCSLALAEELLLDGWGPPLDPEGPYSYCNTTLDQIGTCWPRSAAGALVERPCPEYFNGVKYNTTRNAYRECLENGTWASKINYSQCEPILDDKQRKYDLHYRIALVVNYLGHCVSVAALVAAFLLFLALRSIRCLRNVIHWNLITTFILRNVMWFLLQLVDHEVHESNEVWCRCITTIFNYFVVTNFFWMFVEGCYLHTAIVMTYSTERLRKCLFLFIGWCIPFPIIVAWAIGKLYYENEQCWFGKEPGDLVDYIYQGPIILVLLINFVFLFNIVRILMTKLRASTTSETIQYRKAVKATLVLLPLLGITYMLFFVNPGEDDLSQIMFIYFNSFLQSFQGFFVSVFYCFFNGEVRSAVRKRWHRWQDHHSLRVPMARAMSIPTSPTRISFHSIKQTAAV
T2 sequence (P24387 whole entry): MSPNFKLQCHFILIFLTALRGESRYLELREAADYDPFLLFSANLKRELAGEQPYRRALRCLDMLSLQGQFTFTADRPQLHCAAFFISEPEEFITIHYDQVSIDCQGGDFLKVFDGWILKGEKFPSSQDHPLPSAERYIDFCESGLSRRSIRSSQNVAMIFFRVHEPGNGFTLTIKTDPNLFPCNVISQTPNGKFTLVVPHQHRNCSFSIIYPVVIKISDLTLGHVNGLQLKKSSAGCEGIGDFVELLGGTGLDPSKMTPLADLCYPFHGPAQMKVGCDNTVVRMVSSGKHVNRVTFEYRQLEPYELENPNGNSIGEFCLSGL
Nature of the assay: activators of CRF receptor 2 with binding protein – uHTS hits, confirmation (AID 602473). In kind it is functional. The following applies: read-out: EC50_Mean.

Assay [6] is described as follows: CRF-BP/CRF-R2 complex antagonists, dose response, cell-based, uHTS hits, 384-well (AID 651639). In kind it is functional, Homo sapiens. The following applies: read-out: IC50_Mean.
Assay [7] addresses T2, Corticotropin-releasing factor receptor 2/Corticotropin-releasing factor-binding protein. Nature of the assay: Dose Response confirmation of uHTS hits for small molecule antagonists of the CRF-binding protein and CRF-R2 receptor complex. In kind it is functional. Conditions: read-out: IC50_Mean.
Another assay deals with Beta-galactosidase (Escherichia coli, UniProt Q8VNN2). Briefly: Dose response counterscreen for EBI2 assay utilizing the enzyme, b-galactosidase. In kind it is functional.
The target of assay [8] is T3, Heat shock factor protein 1 (Mus musculus, UniProt P38532).
T3 sequence (P38532 whole entry): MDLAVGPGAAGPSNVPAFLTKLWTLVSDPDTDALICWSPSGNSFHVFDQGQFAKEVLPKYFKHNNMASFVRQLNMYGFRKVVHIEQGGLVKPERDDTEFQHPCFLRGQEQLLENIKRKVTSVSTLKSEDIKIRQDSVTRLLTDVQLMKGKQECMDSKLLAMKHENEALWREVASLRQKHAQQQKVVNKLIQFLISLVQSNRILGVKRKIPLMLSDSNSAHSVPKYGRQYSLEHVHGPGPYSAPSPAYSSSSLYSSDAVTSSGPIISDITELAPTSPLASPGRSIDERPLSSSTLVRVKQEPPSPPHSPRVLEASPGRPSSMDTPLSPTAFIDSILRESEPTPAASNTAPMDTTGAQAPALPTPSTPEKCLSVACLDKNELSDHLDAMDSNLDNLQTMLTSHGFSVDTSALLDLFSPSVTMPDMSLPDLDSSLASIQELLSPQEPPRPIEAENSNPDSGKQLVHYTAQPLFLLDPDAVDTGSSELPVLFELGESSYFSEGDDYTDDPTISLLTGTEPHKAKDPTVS
Nature of the assay: HSF1 potentiators in luciferase reporter cells, confirmation, cell-based, NIH3T3, luminescence, dose retest (AID 435004).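 Note: stress induced by proteasome inhibitor MG132 added 30 min after compound; luciferase reporter driven by HSF1 response element in NIH3T3 cells; actives raise luminescence as potentiators of the MG132 stress response.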 In kind it is functional. Background: A reporter such as luciferase makes a cellular process visible.

Assay [9] deals with Long-chain-fatty-acid--AMP ligase FadD28 (Mycobacterium tuberculosis, UniProt P9WQ59). Nature of the assay: Fluorescence polarization aasay to screen for inhibitors that compete for the binding of FadD28 to a bisubstrate Measured in Biochemical System Using Plate Reader - 2147-01_Inhibitor_Dose_CherryPick_Activity. In kind it is functional, Mycobacterium tuberculosis H37Rv. (In fluorescence polarisation assays a small probe gives low polarisation when free and higher when bound to something large.)

A short description of assay [10]: human group III sPLA2 inhibitors, dose response, biochemical, QFRET, IC50 (AID 743457).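 Note: green fluorescence rise as the enzyme cleaves BODIPY PC-A2 in liposomes; potency for inhibition of the enzyme.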
A short description of assay [11]: Luminescence Cell-Based Dose Retest to Confirm Inhibitors of Cancer Stem Cells. [Related pubchem assays (depositor defined):AID2717, AID2721]. In kind it is functional. Conditions: Homo sapiens.
The test system of the next assay is HEK293. Nature of the assay: inhibitors of LMP1-driven NF-kB reporter, dose response, cell-based, HEK293, luciferase, cherry-pick (AID 588343). In kind it is functional. Conditions: Homo sapiens.
Another assay relates to INS1. Nature of the assay: beta cell apoptosis inhibitors, cytokine rescue, dose response, luminescence, retest (AID 449756).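 Note: cell death triggered by IL-1 beta plus TNF-alpha plus IFN-gamma mixture; protective hits raise ATP signal compared with cytokine alone wells.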 The following applies: Rattus norvegicus. In kind it is functional, cell-based.

Chain of Beta-galactosidase (Q8VNN2 whole entry): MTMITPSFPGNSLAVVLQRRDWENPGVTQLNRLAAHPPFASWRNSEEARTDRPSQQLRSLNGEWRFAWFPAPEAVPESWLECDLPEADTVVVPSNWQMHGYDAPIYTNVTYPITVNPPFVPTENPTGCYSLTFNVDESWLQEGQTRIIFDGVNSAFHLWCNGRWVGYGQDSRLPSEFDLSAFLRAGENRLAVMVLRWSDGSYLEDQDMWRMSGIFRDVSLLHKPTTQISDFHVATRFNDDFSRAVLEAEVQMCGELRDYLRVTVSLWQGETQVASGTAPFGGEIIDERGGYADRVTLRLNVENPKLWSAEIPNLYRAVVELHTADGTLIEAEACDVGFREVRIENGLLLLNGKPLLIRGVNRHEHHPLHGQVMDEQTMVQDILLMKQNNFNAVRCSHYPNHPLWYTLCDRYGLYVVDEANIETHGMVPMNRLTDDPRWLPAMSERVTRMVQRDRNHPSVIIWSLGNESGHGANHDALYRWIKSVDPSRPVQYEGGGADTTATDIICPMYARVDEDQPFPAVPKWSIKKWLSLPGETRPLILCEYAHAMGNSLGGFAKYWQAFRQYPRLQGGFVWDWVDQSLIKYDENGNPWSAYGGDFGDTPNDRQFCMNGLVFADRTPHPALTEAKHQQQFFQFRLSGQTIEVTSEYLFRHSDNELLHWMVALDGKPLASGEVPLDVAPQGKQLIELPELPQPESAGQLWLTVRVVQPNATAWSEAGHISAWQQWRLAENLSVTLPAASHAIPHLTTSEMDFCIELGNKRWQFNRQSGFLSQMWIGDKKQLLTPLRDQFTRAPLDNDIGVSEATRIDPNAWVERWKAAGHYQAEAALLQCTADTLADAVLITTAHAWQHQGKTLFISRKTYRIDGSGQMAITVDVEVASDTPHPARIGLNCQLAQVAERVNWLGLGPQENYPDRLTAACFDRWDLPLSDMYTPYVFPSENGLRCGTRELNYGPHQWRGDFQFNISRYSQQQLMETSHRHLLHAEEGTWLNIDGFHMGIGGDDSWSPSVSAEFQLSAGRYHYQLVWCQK
Chain of Long-chain-fatty-acid--AMP ligase FadD28 (P9WQ59 whole entry): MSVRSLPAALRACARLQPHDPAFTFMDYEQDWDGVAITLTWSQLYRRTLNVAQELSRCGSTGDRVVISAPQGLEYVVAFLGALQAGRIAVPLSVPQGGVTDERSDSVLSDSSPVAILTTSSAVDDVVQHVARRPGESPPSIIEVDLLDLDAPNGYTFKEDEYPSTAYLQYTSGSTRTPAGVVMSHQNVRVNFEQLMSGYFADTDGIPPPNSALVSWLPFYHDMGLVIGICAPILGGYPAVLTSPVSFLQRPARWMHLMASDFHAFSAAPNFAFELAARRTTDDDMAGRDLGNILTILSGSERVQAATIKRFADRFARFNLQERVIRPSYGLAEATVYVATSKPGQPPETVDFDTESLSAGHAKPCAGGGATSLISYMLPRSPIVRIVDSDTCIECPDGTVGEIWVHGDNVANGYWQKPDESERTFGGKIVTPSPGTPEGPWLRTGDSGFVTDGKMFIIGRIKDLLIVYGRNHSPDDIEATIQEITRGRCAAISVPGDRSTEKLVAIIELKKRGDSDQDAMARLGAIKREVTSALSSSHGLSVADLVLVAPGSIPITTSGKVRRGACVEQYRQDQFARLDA
Chain of Dual specificity protein phosphatase 3 (P51452 whole entry): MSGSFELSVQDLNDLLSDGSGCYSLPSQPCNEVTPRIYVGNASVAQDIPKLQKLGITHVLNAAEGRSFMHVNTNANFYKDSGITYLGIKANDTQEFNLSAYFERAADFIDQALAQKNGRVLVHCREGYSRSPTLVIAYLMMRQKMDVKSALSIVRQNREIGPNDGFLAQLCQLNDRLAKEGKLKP
Chain of Tyrosine-protein phosphatase non-receptor type 11 (Q06124 whole entry): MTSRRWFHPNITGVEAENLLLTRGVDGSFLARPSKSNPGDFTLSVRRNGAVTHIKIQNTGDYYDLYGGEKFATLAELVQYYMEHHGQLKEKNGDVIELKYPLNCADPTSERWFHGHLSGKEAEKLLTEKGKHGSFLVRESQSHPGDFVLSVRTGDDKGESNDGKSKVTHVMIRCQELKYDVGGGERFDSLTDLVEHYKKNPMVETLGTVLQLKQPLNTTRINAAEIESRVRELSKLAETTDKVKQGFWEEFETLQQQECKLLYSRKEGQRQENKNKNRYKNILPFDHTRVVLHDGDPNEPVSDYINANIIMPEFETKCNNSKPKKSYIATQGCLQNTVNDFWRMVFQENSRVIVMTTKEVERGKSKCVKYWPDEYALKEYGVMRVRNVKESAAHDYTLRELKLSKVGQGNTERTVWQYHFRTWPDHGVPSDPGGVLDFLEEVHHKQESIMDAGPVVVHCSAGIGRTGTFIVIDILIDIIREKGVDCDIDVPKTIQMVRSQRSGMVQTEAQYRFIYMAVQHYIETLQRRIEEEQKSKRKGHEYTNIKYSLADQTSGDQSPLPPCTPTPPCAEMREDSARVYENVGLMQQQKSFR
Chain of Tyrosine-protein phosphatase non-receptor type 5 (P54829 whole entry): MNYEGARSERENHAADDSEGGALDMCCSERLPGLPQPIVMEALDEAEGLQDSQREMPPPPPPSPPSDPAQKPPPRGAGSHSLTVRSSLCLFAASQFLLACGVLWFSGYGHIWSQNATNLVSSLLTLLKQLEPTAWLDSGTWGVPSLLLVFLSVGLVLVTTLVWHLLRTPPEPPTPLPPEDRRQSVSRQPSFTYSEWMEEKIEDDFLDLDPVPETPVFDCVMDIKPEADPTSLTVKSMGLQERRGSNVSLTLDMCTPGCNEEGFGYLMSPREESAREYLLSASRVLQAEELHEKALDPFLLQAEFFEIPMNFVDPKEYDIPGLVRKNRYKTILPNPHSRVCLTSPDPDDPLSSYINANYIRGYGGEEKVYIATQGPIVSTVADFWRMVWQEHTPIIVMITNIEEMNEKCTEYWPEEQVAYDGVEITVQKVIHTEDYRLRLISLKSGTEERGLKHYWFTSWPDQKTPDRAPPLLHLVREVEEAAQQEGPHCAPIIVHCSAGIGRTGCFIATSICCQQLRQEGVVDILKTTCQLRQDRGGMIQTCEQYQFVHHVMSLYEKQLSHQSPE

For the molecule `COc1ccc(Cl)cc1N=C(S)N(CCCN1CCOCC1)Cc1cn(C)c2ccccc12`, the IC50 in assay [1] was 2.07 µM (active); in [2] it was 38.5 µM (inactive); in [3], 13.9 µM (active); in [4], 754 nM (active).
Consider `COC(=O)CSC1=C(C#N)C(c2ccc(Cl)cc2)C(C(=O)OC)C(=O)N1` (stereo not given), for which the EC50 in assay [5] was > 53 µM (inactive). Moreover, the IC50 was 13.4 µM (active) in assay [6] and 24 µM (active) in [7].
As for `CCn1cc(C(=O)NN)c(=O)c2cc(F)c(NC3CCCCC3)cc21`, the IC50 on Beta-galactosidase was > 80 µM (inactive). The EC50 in [8] was > 260 µM (inactive).
Broadly, the AC50 is the concentration at which the activity in the assay is half-maximal. Turning to `CCn1c(C)cc(/C=C2\NC(=O)N(CC(=O)Nc3cccc(C)c3)C2=O)c1C`, in assay [9], the half-maximal activity concentration (AC50) was 77.2 µM (active).
Turning to `O=C(NN=C(S)Nc1ccc(F)cc1)[C@H]1C[C@@H]1c1ccccc1`, the IC50 in assay [10] was > 122 µM (inactive).
As for `Cc1cc(C)nc(SCc2ccc(C(=O)N/N=C/c3cccc(O)c3O)cc2)n1`, the half-maximal activity concentration (AC50) in assay [11] is 3.83 µM (active); in the assay on HEK293 it was 9.36 µM (active); in the assay on INS1, 2.22 µM (active). The IC50 in assay [10] is > 122 µM (inactive).
